The conditions of data set [1]: due to extensive first-pass metabolism; cited from earlier work.

SMILES strings stand for the structures. Counter-ions that a name gives are not always drawn. Like-named read-outs stand apart in the source and are kept apart here.

For the molecule `OCCOCCN1CCN(C2=Nc3ccccc3Sc3ccccc32)CC1` [quetiapine fumarate, 2-[2-(4-dibenzo [b,f][1,4]thiazepin-11-yl-1-piperazinyl)ethoxy]-ethanol fumarate (2:1)], the solubility is given as 1.499 g/5 ml (pH 2) and 952.1 mg/5 ml (pH 3). Also, the oral bioavailability result in data set [1] is listed as “poor”.

The values are drawn from patent US10940155B2, “Oral quetiapine suspension formulations with extended shelf life and enhanced bioavailability” (TLC THERAPEUTICS, LLC, priority 2017, dated 2021).
